According to ChEMBL document CHEMBL3885881, “DrugMatrix”:

Species: Rattus norvegicus
Experiment: DrugMatrix - Regimen: Daily Repeat
Type: toxicity, organism-based, Sprague-Dawley
Design: regimen Daily Repeat, gender Male, age 6-8 weeks
Conditions: in vivo, po, route oral GAVAGE, […]; for URIC ACID / ALANINE AMINOTRANSFERASE / ALBUMIN / ALKALINE PHOSPHATASE / ASPARTATE AMINOTRANSFERASE / BLOOD UREA NITROGEN / CARBON DIOXIDE / CHLORIDE / CHOLESTEROL / CREATINE PHOSPHOKINASE / CREATININE / GLUCOSE / LACTATE DEHYDROGENASE / LIPASE / PHOSPHORUS / POTASSIUM / SODIUM / TOTAL BILIRUBIN / TOTAL PROTEIN: tissue Plasma; for ABSOLUTE BASOPHIL / ABSOLUTE EOSINOPHIL / ABSOLUTE LYMPHOCYTE / ABSOLUTE MONOCYTE / ABSOLUTE SEGMENTED NEUTROPHIL / BASOPHIL / EOSINOPHIL / ERYTHROCYTE COUNT / HEMATOCRIT / HEMOGLOBIN / LEUKOCYTE COUNT / LYMPHOCYTE / MEAN CORPUSCULAR HEMOGLOBIN / MEAN CORPUSCULAR HEMOGLOBIN CONCENTRATION / MONOCYTE / NEUTROPHIL / NUCLEATED RED BLOOD CELLS / PLATELET COUNT: tissue Blood
[1] = 0.2 mg/kg, 120 h, dose level Low, time 5 day
[2] = 19 mg/kg, 72 h, dose level High, time 3 day
[3] = 19 mg/kg, 120 h, dose level High, time 5 day

## CCOC(=O)C1=C(COCCN)NC(C)=C(C(=O)OC)C1c1ccccc1Cl (stereo unspecified) [AMLODIPINE]
0.2 mg/kg, 72 h, dose level Low, time 3 day
  URIC ACID: 1.4 mg/dL
[1]
  ABSOLUTE BASOPHIL: 0 CELLS/uL
  ABSOLUTE EOSINOPHIL: 54 CELLS/uL
  ABSOLUTE LYMPHOCYTE: 12693.33 CELLS/uL
  ABSOLUTE MONOCYTE: 54 CELLS/uL
  ABSOLUTE SEGMENTED NEUTROPHIL: 1132 CELLS/uL
  BASOPHIL: 0%
  EOSINOPHIL: 0.33%
  ERYTHROCYTE COUNT: 5.55 x10E6/uL
  HEMATOCRIT: 34.53%
  HEMOGLOBIN: 13.3 G/DL
  LEUKOCYTE COUNT: 13.93 x10E3/uL
  LYMPHOCYTE: 91.33%
  MEAN CORPUSCULAR HEMOGLOBIN: 23.97 pg
  MEAN CORPUSCULAR HEMOGLOBIN CONCENTRATION: 38.5 G/DL
  MONOCYTE: 0.33%
  NEUTROPHIL: 8%
  NUCLEATED RED BLOOD CELLS: 0.33 /100WBC
  PLATELET COUNT: 1051.33 x10E3/uL
  ALANINE AMINOTRANSFERASE: 66 u/L
  ALBUMIN: 4.1 G/DL
  ALKALINE PHOSPHATASE: 350 u/L
  ASPARTATE AMINOTRANSFERASE: 82 u/L
  BLOOD UREA NITROGEN: 16 mg/dL
  CARBON DIOXIDE: 30.33 mmol/L
  CHLORIDE: 99.33 MEQ/L
  CHOLESTEROL: 64.33 mg/dL
  CREATINE PHOSPHOKINASE: 209.67 u/L
  CREATININE: 0.14 mg/dL
  GLUCOSE: 156.33 mg/dL
  LACTATE DEHYDROGENASE: 144.67 u/L
  LIPASE: 19.33 u/L
  PHOSPHORUS: 10.4 mg/dL
  POTASSIUM: 5.81 MEQ/L
  SODIUM: 144.97 MEQ/L
  TOTAL BILIRUBIN: 0.1 mg/dL
  TOTAL PROTEIN: 5.67 G/DL
  URIC ACID: 0.87 mg/dL
[2]
  ABSOLUTE BASOPHIL: 0 CELLS/uL
  ABSOLUTE EOSINOPHIL: 0 CELLS/uL
  ABSOLUTE LYMPHOCYTE: 15467 CELLS/uL
  ABSOLUTE MONOCYTE: 0 CELLS/uL
  ABSOLUTE SEGMENTED NEUTROPHIL: 1533 CELLS/uL
  BASOPHIL: 0%
  EOSINOPHIL: 0%
  ERYTHROCYTE COUNT: 5.69 x10E6/uL
  HEMATOCRIT: 35.43%
  HEMOGLOBIN: 13.97 G/DL
  LEUKOCYTE COUNT: 17 x10E3/uL
  LYMPHOCYTE: 90.67%
  MEAN CORPUSCULAR HEMOGLOBIN: 24.53 pg
  MEAN CORPUSCULAR HEMOGLOBIN CONCENTRATION: 39.4 G/DL
  MONOCYTE: 0%
  NEUTROPHIL: 9.33%
  NUCLEATED RED BLOOD CELLS: 0 /100WBC
  PLATELET COUNT: 1141 x10E3/uL
  ALANINE AMINOTRANSFERASE: 69.67 u/L
  ALBUMIN: 3.77 G/DL
  ALKALINE PHOSPHATASE: 410 u/L
  ASPARTATE AMINOTRANSFERASE: 81.67 u/L
  BLOOD UREA NITROGEN: 14 mg/dL
  CARBON DIOXIDE: 29.67 mmol/L
  CHLORIDE: 101.67 MEQ/L
  CHOLESTEROL: 68 mg/dL
  CREATINE PHOSPHOKINASE: 240.33 u/L
  CREATININE: 0.16 mg/dL
  GLUCOSE: 161 mg/dL
  LACTATE DEHYDROGENASE: 103.33 u/L
  LIPASE: 10 u/L
  PHOSPHORUS: 10.33 mg/dL
  SODIUM: 141.27 MEQ/L
  TOTAL BILIRUBIN: 0.23 mg/dL
  TOTAL PROTEIN: 5.6 G/DL
  URIC ACID: 1.43 mg/dL
[3]
  ABSOLUTE BASOPHIL: 0 CELLS/uL
  ABSOLUTE EOSINOPHIL: 0 CELLS/uL
  ABSOLUTE LYMPHOCYTE: 11777 CELLS/uL
  ABSOLUTE MONOCYTE: 51 CELLS/uL
  ABSOLUTE SEGMENTED NEUTROPHIL: 838.67 CELLS/uL
  BASOPHIL: 0%
  EOSINOPHIL: 0%
  ERYTHROCYTE COUNT: 5.63 x10E6/uL
  HEMATOCRIT: 34.73%
  HEMOGLOBIN: 13.7 G/DL
  LEUKOCYTE COUNT: 12.67 x10E3/uL
  LYMPHOCYTE: 92.67%
  MEAN CORPUSCULAR HEMOGLOBIN: 24.33 pg
  MEAN CORPUSCULAR HEMOGLOBIN CONCENTRATION: 39.47 G/DL
  MONOCYTE: 0.33%
  NEUTROPHIL: 7%
  NUCLEATED RED BLOOD CELLS: 0 /100WBC
  PLATELET COUNT: 1057.67 x10E3/uL
  ALANINE AMINOTRANSFERASE: 95 u/L
  ALBUMIN: 4 G/DL
  ALKALINE PHOSPHATASE: 359.33 u/L
  ASPARTATE AMINOTRANSFERASE: 100 u/L
  BLOOD UREA NITROGEN: 16 mg/dL
  CARBON DIOXIDE: 34.67 mmol/L
  CHLORIDE: 101.5 MEQ/L
  CHOLESTEROL: 68.33 mg/dL
  CREATINE PHOSPHOKINASE: 177.67 u/L
  CREATININE: 0.13 mg/dL
  GLUCOSE: 165 mg/dL
  LACTATE DEHYDROGENASE: 96.67 u/L
  LIPASE: 12 u/L
  PHOSPHORUS: 8.93 mg/dL
  POTASSIUM: 5.34 MEQ/L
  SODIUM: 145.05 MEQ/L
  TOTAL BILIRUBIN: 0.1 mg/dL
  TOTAL PROTEIN: 5.9 G/DL
  URIC ACID: 0.37 mg/dL
